Experimental data taken from ChEMBL document CHEMBL3608278 (J Med Chem, 2015).

Assays:
[1] = target: T1, Potassium voltage-gated channel subfamily A member 3 (Homo sapiens, UniProt P22001); set-up: species or system Blood
[2] = target: T1, Potassium voltage-gated channel subfamily A member 3; assay type: cell-based, CHO-K1
[3] = target: T1, Potassium voltage-gated channel subfamily A member 3; experiment: cell-based; set-up: species or system Blood

T1 sequence (P22001 whole entry): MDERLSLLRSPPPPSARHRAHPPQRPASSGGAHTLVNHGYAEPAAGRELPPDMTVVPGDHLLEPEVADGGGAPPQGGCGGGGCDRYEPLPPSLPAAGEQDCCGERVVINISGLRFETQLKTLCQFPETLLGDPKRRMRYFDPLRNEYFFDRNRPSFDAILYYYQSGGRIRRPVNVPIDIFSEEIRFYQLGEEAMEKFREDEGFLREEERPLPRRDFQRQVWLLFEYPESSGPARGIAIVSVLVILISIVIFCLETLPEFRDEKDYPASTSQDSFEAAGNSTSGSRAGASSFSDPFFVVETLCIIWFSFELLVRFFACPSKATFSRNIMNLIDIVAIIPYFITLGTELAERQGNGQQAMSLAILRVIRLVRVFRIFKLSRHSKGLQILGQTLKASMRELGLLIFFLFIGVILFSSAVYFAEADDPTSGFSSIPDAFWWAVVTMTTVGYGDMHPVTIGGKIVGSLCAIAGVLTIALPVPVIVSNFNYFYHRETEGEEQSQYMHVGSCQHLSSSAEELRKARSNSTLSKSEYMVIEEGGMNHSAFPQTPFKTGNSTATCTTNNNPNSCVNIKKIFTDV

Structure (SMILES) | IC50 [1] [nM] | IC50 [2] [nM] | IC50 [3] [nM]
CC[C@H](C)[C@@H]1NC(=O)[C@@H](NC(=O)[C@H](CO)NC(=O)[C@@H](N)CCCNC(=N)N)CSSC[C@@H](C(=O)O)NC(=O)[C@H]([C@@H](C)O)NC(=O)CNC(=O)[C@@H]2CSSC[C@@H]3NC(=O)[C@H](CCC(N)=O)NC(=O)[C@H](Cc4ccccc4)NC(=O)[C@H](C)NC(=O)[C@H]([C@@H](C)O)NC(=O)[C@H](CSSC[C@H](NC(=O)[C@H](Cc4ccccc4)NC(=O)[C@H](CO)NC(=O)[C@H](CC(C)C)NC(=O)[C@H](CCCNC(=N)N)NC(=O)[C@H](Cc4ccc(O)cc4)NC(=O)[C@H](CCCCN)NC(=O)[C@H](CCSC)NC(=O)[C@H](CO)NC(=O)[C@H](Cc4cnc[nH]4)NC(=O)[C@H](CCCCN)NC3=O)C(=O)N[C@@H](CCCNC(=N)N)C(=O)N[C@@H](CCCCN)C(=O)N[C@@H]([C@@H](C)O)C(=O)N2)NC(=O)[C@H](CCCNC(=N)N)NC(=O)[C@H](CO)NC(=O)[C@H](CCCCN)NC(=O)[C@@H]2CCCN2C(=O)[C@H]([C@@H](C)CC)NC(=O)[C@H]([C@@H](C)O)NC(=O)[C@H](Cc2cccc3ccccc23)NC1=O | > 31.9 | > 3.33 | 70.4
CC[C@H](C)[C@@H]1NC(=O)[C@@H](NC(=O)[C@H](CO)NC(=O)[C@@H](N)CCCNC(=N)N)CSSC[C@@H](C(=O)O)NC(=O)[C@H]([C@@H](C)O)NC(=O)CNC(=O)[C@@H]2CSSC[C@@H]3NC(=O)[C@H](CCC(N)=O)NC(=O)[C@H](Cc4ccccc4)NC(=O)[C@H](C)NC(=O)[C@H]([C@@H](C)O)NC(=O)[C@H](CSSC[C@H](NC(=O)[C@H](Cc4ccccc4)NC(=O)[C@H](CO)NC(=O)[C@H](CC(C)C)NC(=O)[C@H](CCCNC(=N)N)NC(=O)[C@H](Cc4ccc(O)cc4)NC(=O)[C@H](CCCCN)NC(=O)[C@H](CCSC)NC(=O)[C@H](CO)NC(=O)[C@H](Cc4c[nH]cn4)NC(=O)[C@H](CCCCN)NC3=O)C(=O)N[C@@H](CCCNC(=N)N)C(=O)N[C@@H](CCCCN)C(=O)N[C@@H]([C@@H](C)O)C(=O)N2)NC(=O)[C@H](CCCNC(=N)N)NC(=O)[C@H](CO)NC(=O)[C@H](CCCCN)NC(=O)[C@@H]2CCCN2C(=O)[C@H]([C@@H](C)CC)NC(=O)[C@H](Cc2cccc3ccccc23)NC(=O)[C@H](CC(=O)O)NC1=O | 0.962 | 0.153 | 0.86
CC[C@H](C)[C@@H]1NC(=O)[C@@H](NC(=O)[C@H](CO)NC(=O)[C@@H](N)CCCNC(=N)N)CSSC[C@@H](C(=O)O)NC(=O)[C@H]([C@@H](C)O)NC(=O)CNC(=O)[C@@H]2CSSC[C@@H]3NC(=O)[C@H](CCC(N)=O)NC(=O)[C@H](Cc4ccccc4)NC(=O)[C@H](C)NC(=O)[C@H]([C@@H](C)O)NC(=O)[C@H](CSSC[C@H](NC(=O)[C@H](Cc4ccccc4)NC(=O)[C@H](CO)NC(=O)[C@H](CC(C)C)NC(=O)[C@H](CCCNC(=N)N)NC(=O)[C@H](Cc4ccc(O)cc4)NC(=O)[C@H](CCCCN)NC(=O)[C@H](CCSC)NC(=O)[C@H](CO)NC(=O)[C@H](Cc4cnc[nH]4)NC(=O)[C@H](CCCCN)NC3=O)C(=O)N[C@@H](CCCNC(=N)N)C(=O)N[C@@H](CCCCN)C(=O)N[C@@H]([C@@H](C)O)C(=O)N2)NC(=O)[C@H](CCCNC(=N)N)NC(=O)[C@H](CO)NC(=O)[C@H](CCCCN)NC(=O)[C@@H]2CCCN2C(=O)[C@H](Cc2cccc3ccccc23)NC(=O)[C@H]([C@@H](C)O)NC(=O)[C@H](CC(=O)O)NC1=O | 18 | > 3.33 | 11.6
CC[C@H](C)[C@@H]1NC(=O)[C@@H](NC(=O)[C@H](CO)NC(=O)[C@@H](N)CCCNC(=N)N)CSSC[C@@H](C(=O)O)NC(=O)[C@H]([C@@H](C)O)NC(=O)CNC(=O)[C@@H]2CSSC[C@@H]3NC(=O)[C@H](Cc4cccc5ccccc45)NC(=O)[C@H](Cc4ccccc4)NC(=O)[C@H](C)NC(=O)[C@H]([C@@H](C)O)NC(=O)[C@H](CSSC[C@H](NC(=O)[C@H](Cc4ccccc4)NC(=O)[C@H](CO)NC(=O)[C@H](CC(C)C)NC(=O)[C@H](CCCNC(=N)N)NC(=O)[C@H](Cc4ccc(O)cc4)NC(=O)[C@H](CCCCN)NC(=O)[C@H](CCSC)NC(=O)[C@H](CO)NC(=O)[C@H](Cc4cnc[nH]4)NC(=O)[C@H](CCCCN)NC3=O)C(=O)N[C@@H](CCCNC(=N)N)C(=O)N[C@@H](CCCCN)C(=O)N[C@@H]([C@@H](C)O)C(=O)N2)NC(=O)[C@H](CCCNC(=N)N)NC(=O)[C@H](CO)NC(=O)[C@H](CCCCN)NC(=O)[C@@H]2CCCN2C(=O)[C@H]([C@@H](C)CC)NC(=O)[C@H]([C@@H](C)O)NC(=O)[C@H](CC(=O)O)NC1=O | 9.55 | 1.44 | 28.9
CC[C@H](C)[C@@H]1NC(=O)[C@@H](NC(=O)[C@H](CO)NC(=O)[C@@H](N)CCCNC(=N)N)CSSC[C@@H](C(=O)O)NC(=O)[C@H]([C@@H](C)O)NC(=O)CNC(=O)[C@@H]2CSSC[C@@H]3NC(=O)[C@H](CCC(N)=O)NC(=O)[C@H](Cc4ccccc4)NC(=O)[C@H](C)NC(=O)[C@H]([C@@H](C)O)NC(=O)[C@H](CSSC[C@H](NC(=O)[C@H](Cc4ccccc4)NC(=O)[C@H](CO)NC(=O)[C@H](CC(C)C)NC(=O)[C@H](CCCNC(=N)N)NC(=O)[C@H](Cc4ccc(O)cc4)NC(=O)[C@H](CCCCN)NC(=O)[C@H](CCSC)NC(=O)[C@H](Cc4cccc5ccccc45)NC(=O)[C@H](Cc4cnc[nH]4)NC(=O)[C@H](CCCCN)NC3=O)C(=O)N[C@@H](CCCNC(=N)N)C(=O)N[C@@H](CCCCN)C(=O)N[C@@H]([C@@H](C)O)C(=O)N2)NC(=O)[C@H](CCCNC(=N)N)NC(=O)[C@H](CO)NC(=O)[C@H](CCCCN)NC(=O)[C@@H]2CCCN2C(=O)[C@H]([C@@H](C)CC)NC(=O)[C@H]([C@@H](C)O)NC(=O)[C@H](CC(=O)O)NC1=O | > 100 | > 3.33 | > 100
CC[C@H](C)[C@@H]1NC(=O)[C@@H](NC(=O)[C@H](CO)NC(=O)[C@@H](N)CCCNC(=N)N)CSSC[C@@H](C(=O)O)NC(=O)[C@H]([C@@H](C)O)NC(=O)CNC(=O)[C@@H]2CSSC[C@@H]3NC(=O)[C@H](CCC(N)=O)NC(=O)[C@H](Cc4ccccc4)NC(=O)[C@H](C)NC(=O)[C@H]([C@@H](C)O)NC(=O)[C@H](CSSC[C@H](NC(=O)[C@H](Cc4ccccc4)NC(=O)[C@H](CO)NC(=O)[C@H](CC(C)C)NC(=O)[C@H](CCCNC(=N)N)NC(=O)[C@H](Cc4ccc(O)cc4)NC(=O)[C@H](CCCCN)NC(=O)[C@H](Cc4cccc5ccccc45)NC(=O)[C@H](CO)NC(=O)[C@H](Cc4cnc[nH]4)NC(=O)[C@H](CCCCN)NC3=O)C(=O)N[C@@H](CCCNC(=N)N)C(=O)N[C@@H](CCCCN)C(=O)N[C@@H]([C@@H](C)O)C(=O)N2)NC(=O)[C@H](CCCNC(=N)N)NC(=O)[C@H](CO)NC(=O)[C@H](CCCCN)NC(=O)[C@@H]2CCCN2C(=O)[C@H]([C@@H](C)CC)NC(=O)[C@H]([C@@H](C)O)NC(=O)[C@H](CC(=O)O)NC1=O | 8.13 | 0.853 | 6.59
CC[C@H](C)[C@@H]1NC(=O)[C@@H](NC(=O)[C@H](CO)NC(=O)[C@@H](N)CCCNC(=N)N)CSSC[C@@H](C(=O)O)NC(=O)[C@H]([C@@H](C)O)NC(=O)CNC(=O)[C@@H]2CSSC[C@@H]3NC(=O)[C@H](CCC(N)=O)NC(=O)[C@H](Cc4ccccc4)NC(=O)[C@H](C)NC(=O)[C@H]([C@@H](C)O)NC(=O)[C@H](CSSC[C@H](NC(=O)[C@H](Cc4ccccc4)NC(=O)[C@H](CO)NC(=O)[C@H](CC(C)C)NC(=O)[C@H](CCCNC(=N)N)NC(=O)[C@H](Cc4ccc(O)cc4)NC(=O)[C@H](Cc4cccc5ccccc45)NC(=O)[C@H](CCSC)NC(=O)[C@H](CO)NC(=O)[C@H](Cc4cnc[nH]4)NC(=O)[C@H](CCCCN)NC3=O)C(=O)N[C@@H](CCCNC(=N)N)C(=O)N[C@@H](CCCCN)C(=O)N[C@@H]([C@@H](C)O)C(=O)N2)NC(=O)[C@H](CCCNC(=N)N)NC(=O)[C@H](CO)NC(=O)[C@H](CCCCN)NC(=O)[C@@H]2CCCN2C(=O)[C@H]([C@@H](C)CC)NC(=O)[C@H]([C@@H](C)O)NC(=O)[C@H](CC(=O)O)NC1=O | > 100 | > 3.33 | > 100
CC[C@H](C)[C@@H]1NC(=O)[C@@H](NC(=O)[C@H](CO)NC(=O)[C@@H](N)CCCNC(=N)N)CSSC[C@@H](C(=O)O)NC(=O)[C@H]([C@@H](C)O)NC(=O)CNC(=O)[C@@H]2CSSC[C@@H]3NC(=O)[C@H](CCC(N)=O)NC(=O)[C@H](Cc4ccccc4)NC(=O)[C@H](C)NC(=O)[C@H]([C@@H](C)O)NC(=O)[C@H](CSSC[C@H](NC(=O)[C@H](Cc4ccccc4)NC(=O)[C@H](CO)NC(=O)[C@H](Cc4cccc5ccccc45)NC(=O)[C@H](CCCNC(=N)N)NC(=O)[C@H](Cc4ccc(O)cc4)NC(=O)[C@H](CCCCN)NC(=O)[C@H](CCSC)NC(=O)[C@H](CO)NC(=O)[C@H](Cc4cnc[nH]4)NC(=O)[C@H](CCCCN)NC3=O)C(=O)N[C@@H](CCCNC(=N)N)C(=O)N[C@@H](CCCCN)C(=O)N[C@@H]([C@@H](C)O)C(=O)N2)NC(=O)[C@H](CCCNC(=N)N)NC(=O)[C@H](CO)NC(=O)[C@H](CCCCN)NC(=O)[C@@H]2CCCN2C(=O)[C@H]([C@@H](C)CC)NC(=O)[C@H]([C@@H](C)O)NC(=O)[C@H](CC(=O)O)NC1=O | 0.084 | 0.103 | 0.061
